Entries after “also recorded” stand apart in the source; their conditions may differ.
Assays:
V79 cells [1] = test: Cell survival by colony-forming test after photosensitizer and light; format: cell-based, Chinese hamster
Protocol: (§1) Cells of the established line V79 (ATCC CCL-93) derived from Chinese hamster lung fibroblasts were used. The cells were grown in MEM medium containing 10% foetal calf serum (FCS from Gibco, Paisley, UK), 100 U ml^−1 penicillin and 100 μg ml^−1 streptomycin (Gibco) at 37° C. in an incubator flushed with 5% CO2 in air. The cells were subcultured twice a week.
The cells were inoculated in 25 cm^2 flasks (Nunclon, Denmark) containing MEM medium with 10% FCS and left at 37° C. for 4-5 hours for proper attachment to the substratum. Subsequently, the cells were washed 3 times with medium and exposed to 1 μg/ml TPPS2a or TPCS2a in serum-containing medium for 18 hours. The cells were subsequently washed 3 times with the sensitizer-free medium and incubated for 1 hour before light exposure. The cells were then exposed to red light (Phillips TL 20 W/09) filtered through a Cinemoid 35 filter or blue light (Appl. Photophysics, Nood. 3026, London). […]
Cell survival was measured by the colony-forming test as described by Berg et al. (Photochem. Photobiol. 53: 203-210, 1991). […] The cells were then fixed in ethanol, stained with methylene blue and the colonies counted. Inhibition of protein synthesis was assessed by [^3H]-leucine incorporation into proteins, measured at 24 hours post light exposure as described by Llorente et al. (FEBS Lett. 431: 200-204, 1998).

[2] = Absorption spectra on photochemical reduction of TPPS2a; format: physicochemical; settings: benzene/TEA, peak shifted from 646 nm to 655 nm
Protocol: A mixture of 950 μl benzene/triethylamine (TEA) (18:7), 32 μl dimethyl sulfoxide (DMSO) and 18 μl TPPS2a (from a solution of 1 mg/ml in DMSO) was prepared and saturated with nitrogen for 5 min in a 1 ml cuvette. The mixture was then exposed to light from a 500 W high pressure Xenon lamp fitted to a Bausch and Lomb grating monochromator. The cuvette was exposed to 545±15 nm light at 15 W/m^2. The fluence rate was monitored by means of a UDT 11 A photodetector with a 223 radiometric filter. The absorption spectra was measured regularly by a Perkin-Elmer Lambda 15 UV/VIS spectrophotometer. The light pass was 1 cm.
In accordance with the method described by Harel et al. (Photochem. Photobiol. 23: 337-341, 1976), TPPS2a was exposed to light in a solution of triethylamine (TEA) in benzene saturated with nitrogen. The solution was exposed to light of 545 nm in a cuvette as described above in “Materials and Methods”.

V79 cells [3] = test: Inhibition of protein synthesis by [3H]-leucine incorporation (PCI of gelonin); format: cell-based, Chinese hamster
Protocol: as §1
The cells were inoculated in 25 cm^2 flasks (Nunclon, Denmark) containing MEM medium with 10% FCS and left at 37° C. for 4-5 hours for proper attachment to the substratum. Subsequently, the cells were washed 3 times with medium and exposed to 1 μg/ml TPPS2a or TPCS2a in serum-containing medium for 18 hours. The cells were subsequently washed 3 times with the sensitizer-free medium and incubated for 1 hour before light exposure. The cells were then exposed to red light (Phillips TL 20 W/09) filtered through a Cinemoid 35 filter or blue light (Appl. Photophysics, Nood. 3026, London). The fluence rates reaching the cells were 1.35 mW/cm^2 and 1.5 mW/cm^2 from the red and the blue lamps respectively.
Cell survival was measured by the colony-forming test as described by Berg et al. (Photochem. Photobiol. 53: 203-210, 1991). 1500 cells were inoculated in 25 cm^2 plastic tissue-culture flasks and treated with the photosensitizer and light as described above. After photochemical treatment the V79 cells were left for 5 days at 37° C. in serum-containing culture medium to allow for formation of countable colonies. The cells were then fixed in ethanol, stained with methylene blue and the colonies counted. Inhibition of protein synthesis was assessed by [^3H]-leucine incorporation into proteins, measured at 24 hours post light exposure as described by Llorente et al. (FEBS Lett. 431: 200-204, 1998).

V79 cells [4] = settings: Berg et al. Cancer Res. 59: 1180-1183, 1999; cited from earlier work

Substance	sensitivity of treated cells to photoinactivation with blue light relative to TPPS2a (V79 cells [1]; 18 hours incubation with sensitizer, 1 hour sensitizer-free medium, blue light, versus TPPS2a)	reduction induced by TPCS2a alone in the clonogenicity assay (V79 cells [1]; TPCS2a alone)	increase in the extinction coefficient of band I of the Q-bands versus TPPS2a [2]	potentiation of the cytotoxicity of gelonin by TPCS2a and light (V79 cells [3]; 1 μg/ml TPCS2a plus 1 μg/ml gelonin, red light, protein synthesis 24 hours after exposure to light)	reduction in protein synthesis induced by TPCS2a alone (V79 cells [3]; 1 μg/ml TPCS2a, without gelonin)	toxicity of gelonin alone or in combination with light (literature) (V79 cells [4])	reduction of protein synthesis by gelonin alone (V79 cells [3]; 1 μg/ml gelonin for 18 hours)
Tetraphenyl chlorin disulfonate [TPCS2a]	equally sensitive; also recorded: equally efficient	not observed	5.8 fold	strongly potentiate	20%	–	–
gelonin: type I ribosome-inactivating protein toxin, transfer molecule for PCI	–	–	–	–	–	low toxicity	about 10%
